Experimental data from US20150259300A1, “4-(ORTHO)-FLUOROPHENYL-5-FLUOROPYRIMIDIN-2-YL AMINES CONTAINING A SULFONE GROUP” (BAYER PHARMA AKTIENGESELLSCHAFT, priority 2012, published 2015).

Tests used:
[1] = target: T1, CDK2/CycE (Homo sapiens, UniProt P24941); assay: CDK2/CycE kinase assay (TR-FRET, Method 2); type: biochemical; details: Method 2, 10 μM ATP
T1 construct: GST; purchased ProQinase GmbH (Freiburg, Germany); host or cells: insect cells (Sf9)
Source text: 2. CDK2/CycE Kinase Assay:
CDK2/CycE -inhibitory activity of compounds of the present invention was quantified employing the CDK2/CycE TR-FRET assay as described in the following paragraphs:
Recombinant fusion proteins of GST and human CDK2 and of GST and human CycE, expressed in insect cells (Sf9) and purified by Glutathion-Sepharose affinity chromatography, were purchased from ProQinase GmbH (Freiburg, Germany). As substrate for the kinase reaction biotinylated peptide biotin-Ttds-YISPLKSPYKISEG (C-terminus in amid form) was used which can be purchased e.g. form the company JERINI Peptide Technologies (Berlin, Germany).
(§1) For the assay 50 nl of a 100 fold concentrated solution of the test compound in DMSO was pipetted into a black low volume 384 well microtiter plate (Greiner Bio-One, Frickenhausen, Germany), 2 μl of a solution of CDK2/CycE in aqueous assay buffer [50 mM Tris/HCl pH 8.0, 10 mM MgCl2, 1.0 mM dithiothreitol, 0.1 mM sodium ortho-vanadate, 0.01% (v/v) Nonidet-P40 (Sigma)] were added and the mixture was incubated for […] at 22° C. to allow pre-binding of the test compounds to the enzyme before the start of the kinase reaction. Then the kinase reaction was started by the addition of 3 μl of a solution of adenosine-tri-phosphate (ATP, 16.7 μM=>final conc. in the 5 μl assay volume is 10 μM) and substrate (1.25 μM=>final conc. in the 5 μl assay volume is 0.75 μM) in assay buffer and the resulting mixture was incubated for a reaction time of […] at 22° C. The concentration of CDK2/CycE was adjusted depending of the activity of the enzyme lot and was chosen appropriate to have the assay in the linear range, typical concentrations were in the range of 130 ng/ml. The reaction was stopped by the addition of 5 μl of a solution of TR-FRET detection reagents (0.2 μM streptavidine-XL665 [Cisbio Bioassays, Codolet, France] and 1 nM anti-RB(pSer807/pSer811)-antibody from BD Pharmingen [#558389] and 1.2 nM LANCE EU-W1024 labeled anti-mouse IgG antibody [Perkin-Elmer, product no. AD0077]) in an aqueous EDTA-solution (100 mM EDTA, 0.2% (w/v) bovine serum albumin in 100 mM HEPES/NaOH pH 7.0).
(§2) The resulting mixture was incubated 1 h at 22° C. to allow the formation of complex between the phosphorylated biotinylated peptide and the detection reagents. Subsequently the amount of phosphorylated substrate was evaluated by measurement of the resonance energy transfer from the Eu-chelate to the streptavidine-XL. Therefore, the fluorescence emissions at 620 nm and 665 nm after excitation at 350 nm was measured in a TR-FRET reader, e.g. a Rubystar (BMG Labtechnologies, Offenburg, Germany) or a Viewlux (Perkin-Elmer). The ratio of the emissions at 665 nm and at […] was taken as the measure for the amount of phosphorylated substrate. The data were normalised (enzyme reaction without inhibitor=0% inhibition, all other assay components but no enzyme=100% inhibition).

[2] = test system: HeLa cells; assay: Proliferation assay (crystal violet), HeLa; type: cell-based; details: Homo sapiens, 96 h, 4 days, read-out: Inhibition of HeLa cell proliferation IC50
Method: Cultivated tumour cells (HeLa, human cervical tumour cells, ATCC CCL-2; NCI-H460, human non-small cell lung carcinoma cells, ATCC HTB-177; A2780, human ovarian carcinoma cells, ECACC #93112519; DU 145, hormone-independent human prostate carcinoma cells, ATCC HTB-81; HeLa-MaTu-ADR, multidrug-resistant human cervical carcinoma cells, EPO-GmbH Berlin; Caco-2, human colorectal carcinoma cells, ATCC HTB-37; B 16F10, mouse melanoma cells, ATCC CRL-6475) were plated at a density of 5,000 cells/well (DU145, HeLa-MaTu-ADR), 3,000 cells/well (NCI-H460, HeLa), 2,500 cells/well (A2780), 1,500 cells/well (Caco-2), or 1,000 cells/well (B16F10) in a 96-well multititer plate in 200 μL of their respective growth medium supplemented 10% fetal calf serum. After 24 hours, the cells of one plate (zero-point plate) were stained with crystal violet (see below), while the medium of the other plates was replaced by fresh culture medium (200 to which the test substances were added in various concentrations (0 μM, as well as in the range of 0.001-10 μM; the final concentration of the solvent dimethyl sulfoxide was 0.5%). The cells were incubated for 4 days in the presence of test substances. Cell proliferation was determined by staining the cells with crystal violet: the cells were fixed by adding 20 μl/measuring point of an 11% glutaric aldehyde solution for 15 minutes at room temperature. After three washing cycles of the fixed cells with water, the plates were dried at room temperature. The cells were stained by adding 100 μl/measuring point of a 0.1% crystal violet solution (pH 3.0). After three washing cycles of the stained cells with water, the plates were dried at room temperature. The dye was dissolved by adding 100 μl/measuring point of a 10% acetic acid solution. The extinction was determined by photometry at a wavelength of 595 nm. The change of cell number, in percent, was calculated by normalization of the measured values to the extinction values of the zero-point plate (=0%) and the extinction of the untreated (0 μm) cells (=100%). The IC50 values (inhibitory concentration at 50% of maximal effect) were determined by means of a 4 parameter fit.

[3] = target: T2, CDK9/CycT1 (Homo sapiens, UniProt P50750); assay: CDK9/CycT1 kinase assay (TR-FRET, Method 1a); type: biochemical; details: for IC50: Method 1a, 10 μM ATP; for Selectivity CDK9/CDK2: derived from Methods 1a. and 2.
T2 construct: Recombinant full-length His-tagged human CDK9 and CycT1; His; purchased Invitrogen PV4131; host or cells: insect cells
T2 sequence (P50750 whole entry): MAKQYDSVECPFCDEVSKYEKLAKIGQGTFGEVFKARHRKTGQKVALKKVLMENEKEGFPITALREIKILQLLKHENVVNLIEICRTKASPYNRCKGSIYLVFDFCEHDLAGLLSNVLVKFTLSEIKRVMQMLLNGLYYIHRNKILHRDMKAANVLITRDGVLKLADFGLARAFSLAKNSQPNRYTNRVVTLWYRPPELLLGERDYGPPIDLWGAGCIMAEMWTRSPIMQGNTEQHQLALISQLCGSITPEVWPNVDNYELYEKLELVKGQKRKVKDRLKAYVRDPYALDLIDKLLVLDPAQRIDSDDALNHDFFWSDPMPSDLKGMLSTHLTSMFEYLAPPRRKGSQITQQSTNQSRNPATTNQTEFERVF
T2 sequence (O60563 whole entry partner): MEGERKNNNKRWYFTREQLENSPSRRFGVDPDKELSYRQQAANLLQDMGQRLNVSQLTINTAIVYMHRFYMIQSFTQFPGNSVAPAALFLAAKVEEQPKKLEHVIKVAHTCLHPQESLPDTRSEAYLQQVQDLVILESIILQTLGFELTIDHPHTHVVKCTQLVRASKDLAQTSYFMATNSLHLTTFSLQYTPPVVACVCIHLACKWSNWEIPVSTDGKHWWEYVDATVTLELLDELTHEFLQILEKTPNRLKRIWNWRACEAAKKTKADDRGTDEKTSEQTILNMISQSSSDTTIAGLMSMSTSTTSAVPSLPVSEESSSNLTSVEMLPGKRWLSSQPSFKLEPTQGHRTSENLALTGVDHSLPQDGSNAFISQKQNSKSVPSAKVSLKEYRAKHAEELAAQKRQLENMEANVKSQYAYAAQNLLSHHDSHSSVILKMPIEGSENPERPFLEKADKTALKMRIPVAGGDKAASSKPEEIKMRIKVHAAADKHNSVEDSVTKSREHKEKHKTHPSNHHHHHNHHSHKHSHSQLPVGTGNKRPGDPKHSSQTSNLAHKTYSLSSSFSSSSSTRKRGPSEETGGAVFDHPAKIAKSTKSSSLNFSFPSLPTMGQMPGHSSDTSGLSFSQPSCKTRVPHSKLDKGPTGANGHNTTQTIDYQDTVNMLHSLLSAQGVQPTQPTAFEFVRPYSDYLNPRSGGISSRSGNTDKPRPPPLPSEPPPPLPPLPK
Source text: 1a. CDK9/CyeT1 Kinase Assay:
CDK9/CycT1-inhibitory activity of compounds of the present invention was quantified employing the CDK9/CycT1 TR-FRET assay as described in the following paragraphs:
Recombinant full-length His-tagged human CDK9 and CycT1, expressed in insect cells and purified by Ni-NTA affinity chromatography, were purchased from Invitrogen (Cat. No PV4131). As substrate for the kinase reaction biotinylated peptide biotin-Ttds-YISPLKSPYKISEG (C-terminus in amid form) was used which can be purchased e.g. form the company JERINI Peptide Technologies (Berlin, Germany). For the assay 50 nl of a 100 fold concentrated solution of the test compound in DMSO was pipetted into a black low volume 384 well microtiter plate (Greiner Bio-One, Frickenhausen, Germany), 2 μl of a solution of CDK9/CycT1 in aqueous assay buffer [50 mM Tris/HCl pH 8.0, 10 mM MgCl2, 1.0 mM dithiothreitol, 0.1 mM sodium ortho-vanadate, 0.01% (v/v) Nonidet-P40 (Sigma)] were added and the mixture was incubated for 15 min at 22° C. to allow pre-binding of the test compounds to the enzyme before the start of the kinase reaction. Then the kinase reaction was started by the addition of 3 μl of a solution of adenosine-tri-phosphate (ATP, 16.7 μM=>final conc. in the 5 μl assay volume is 10 μM) and substrate (1.67 μM=>final conc. in the 5 μl assay volume is 1 μM) in assay buffer and the resulting mixture was incubated for a reaction time of 25 min at 22° C. The concentration of CDK9/CycT1 was adjusted depending of the activity of the enzyme lot and was chosen appropriate to have the assay in the linear range, typical concentrations were in the range of 1 μg/ml. The reaction was stopped by the addition of 5 μl of a solution of TR-FRET detection reagents (0.2 μM streptavidine-XL665 [Cisbio Bioassays, Codolet, France] and 1 nM anti-RB(pSer807/pSer811)-antibody from BD Pharmingen [#558389] and 1.2 nM LANCE EU-W1024 labeled anti-mouse IgG antibody [Perkin-Elmer, product no. AD0077]) in an aqueous EDTA-solution (100 mM EDTA, 0.2% (w/v) bovine serum albumin in 100 mM HEPES/NaOH pH 7.0).
as §2, with “HTRF” for “TR-FRET”

[4] = target: T2, CDK9/CycT1; assay: CDK9/CycT1 high ATP kinase assay (TR-FRET, Method 1b); type: biochemical; details: 2 mM ATP
Method: 1b. CDK9/CyeT1 High ATP Kinase Assay
CDK9/CycT1-inhibitory activity of compounds of the present invention at a high ATP concentration after preincubation of enzyme and test compounds was quantified employing the CDK9/CycT1 TR-FRET assay as described in the following paragraphs.
Recombinant full-length His-tagged human CDK9 and CycT1, expressed in insect cells and purified by Ni-NTA affinity chromatography, were purchase from Invitrogen (Cat. No PV4131). As substrate for the kinase reaction biotinylated peptide biotin-Ttds-YISPLKSPYKISEG (C-terminus in amid form) was used which can be purchased e.g. form the company JERINI peptide technologies (Berlin, Germany).
as §1, with “of CDK9/CycT1” for “of CDK2/CycE”, “(ATP, 3.3 mM=>final conc. in the 5 μl assay volume is 2 mM) and substrate (1.67” for “(ATP, 16.7”, “is 1” for “is 10 μM) and substrate (1.25 μM=>final conc. in the 5 μl assay volume is 0.75”, “of 0.5” for “of 130”, “([…]” for “(0.2 μM”
as §2, with “HTRF” for “TR-FRET”

IC50 [1] [µM] | IC50 [2] [nM] | IC50 [3] [nM] | Selectivity CDK9/CDK2 [3] | IC50 [4] [µM] | SMILES
> 20 | 1050 | 20 | >1000 | – | CS(=O)(=O)Cc1cc(Nc2ncc(F)c(-c3ccc(F)cc3F)n2)cc(C(F)(F)F)c1 [Example 1, 4-(2,4-Difluorophenyl)-5-fluoro-N-{3-[(methylsulfonyl)methyl]-5-(trifluoromethyl)phenyl}pyrimidin-2-amine]
0.36 | 2240 | 40 | 8.9 | – | CCS(=O)(=O)Cc1cccc(Nc2ncc(F)c(-c3ccc(F)cc3F)n2)c1 [Example 7, 4-(2,4-Difluorophenyl)-N-{3-[(ethylsulfonyl)methyl]phenyl}-5-fluoropyrimidin-2-amine]
> 20 | 3000 | – | – | > 20 | CCCS(=O)(=O)Cc1cc(F)cc(Nc2ncc(F)c(-c3cc(F)c(F)cc3F)n2)c1 [Example 14, 5-Fluoro-N-{3-fluoro-5-[(propylsulfonyl)methyl]phenyl}-4-(2,4,5-trifluorophenyl)pyrimidin-2-amine]
